Test results: patent publication US10231954B2, “Neurodegenerative therapies” (LYTIX BIOPHARMA AS, priority 2014, dated 2019)
Read-outs that look alike come from different tables or passages of the source.

What was measured:
Format in all cases: biochemical
MAPKAP-K2 = MAPKAP-K2 (Homo sapiens, UniProt P49137); assay: Kinase profiling MAPKAP-K2; settings: for remaining activity at 100 µM: read-out: residual kinase activity, MAPKAP-K2
From the text: (§1) Any value less that 25 is considered to be highly significant inhibition.

EIF2AK3 = molecular target: T1, EIF2AK3 (Homo sapiens, UniProt Q9NZJ5); assay: Kinase profiling EIF2AK3; settings: for remaining activity at 100 µM: read-out: residual kinase activity, EIF2AK3
T1 sequence (Q9NZJ5 30-1116): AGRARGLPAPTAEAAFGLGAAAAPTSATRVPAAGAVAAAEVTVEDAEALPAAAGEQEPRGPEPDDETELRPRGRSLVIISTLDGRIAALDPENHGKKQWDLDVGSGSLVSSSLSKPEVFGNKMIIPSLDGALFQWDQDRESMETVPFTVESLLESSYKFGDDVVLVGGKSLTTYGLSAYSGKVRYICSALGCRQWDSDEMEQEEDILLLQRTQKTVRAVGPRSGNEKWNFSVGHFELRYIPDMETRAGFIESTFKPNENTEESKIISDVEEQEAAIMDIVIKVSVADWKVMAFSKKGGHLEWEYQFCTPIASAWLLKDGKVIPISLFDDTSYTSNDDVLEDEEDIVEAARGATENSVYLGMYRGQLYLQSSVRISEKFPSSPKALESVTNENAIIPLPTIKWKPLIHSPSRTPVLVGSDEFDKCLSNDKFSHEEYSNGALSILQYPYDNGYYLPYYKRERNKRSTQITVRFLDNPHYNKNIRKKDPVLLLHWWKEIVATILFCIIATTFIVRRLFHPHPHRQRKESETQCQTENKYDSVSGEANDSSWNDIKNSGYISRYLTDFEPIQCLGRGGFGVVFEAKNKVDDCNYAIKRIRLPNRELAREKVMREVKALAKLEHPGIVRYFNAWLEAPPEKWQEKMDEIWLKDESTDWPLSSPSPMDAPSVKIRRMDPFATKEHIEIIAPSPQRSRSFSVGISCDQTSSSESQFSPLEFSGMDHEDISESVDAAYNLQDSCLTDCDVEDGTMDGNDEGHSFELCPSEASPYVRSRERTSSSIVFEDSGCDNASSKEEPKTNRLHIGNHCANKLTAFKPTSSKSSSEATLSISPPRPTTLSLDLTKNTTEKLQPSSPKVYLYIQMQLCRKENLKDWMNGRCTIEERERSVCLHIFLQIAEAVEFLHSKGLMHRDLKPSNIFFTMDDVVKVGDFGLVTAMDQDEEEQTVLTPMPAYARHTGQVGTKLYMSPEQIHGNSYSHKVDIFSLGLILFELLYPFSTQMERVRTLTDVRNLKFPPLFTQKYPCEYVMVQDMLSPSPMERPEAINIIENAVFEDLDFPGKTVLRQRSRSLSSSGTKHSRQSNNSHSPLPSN
From the text: as §1

EPH-B3 = molecular target: T2, EPH-B3 (Homo sapiens, UniProt P54753); assay: Kinase profiling EPH-B3; settings: for remaining activity at 100 µM: read-out: residual kinase activity, EPH-B3
T2 sequence (P54753 34-998): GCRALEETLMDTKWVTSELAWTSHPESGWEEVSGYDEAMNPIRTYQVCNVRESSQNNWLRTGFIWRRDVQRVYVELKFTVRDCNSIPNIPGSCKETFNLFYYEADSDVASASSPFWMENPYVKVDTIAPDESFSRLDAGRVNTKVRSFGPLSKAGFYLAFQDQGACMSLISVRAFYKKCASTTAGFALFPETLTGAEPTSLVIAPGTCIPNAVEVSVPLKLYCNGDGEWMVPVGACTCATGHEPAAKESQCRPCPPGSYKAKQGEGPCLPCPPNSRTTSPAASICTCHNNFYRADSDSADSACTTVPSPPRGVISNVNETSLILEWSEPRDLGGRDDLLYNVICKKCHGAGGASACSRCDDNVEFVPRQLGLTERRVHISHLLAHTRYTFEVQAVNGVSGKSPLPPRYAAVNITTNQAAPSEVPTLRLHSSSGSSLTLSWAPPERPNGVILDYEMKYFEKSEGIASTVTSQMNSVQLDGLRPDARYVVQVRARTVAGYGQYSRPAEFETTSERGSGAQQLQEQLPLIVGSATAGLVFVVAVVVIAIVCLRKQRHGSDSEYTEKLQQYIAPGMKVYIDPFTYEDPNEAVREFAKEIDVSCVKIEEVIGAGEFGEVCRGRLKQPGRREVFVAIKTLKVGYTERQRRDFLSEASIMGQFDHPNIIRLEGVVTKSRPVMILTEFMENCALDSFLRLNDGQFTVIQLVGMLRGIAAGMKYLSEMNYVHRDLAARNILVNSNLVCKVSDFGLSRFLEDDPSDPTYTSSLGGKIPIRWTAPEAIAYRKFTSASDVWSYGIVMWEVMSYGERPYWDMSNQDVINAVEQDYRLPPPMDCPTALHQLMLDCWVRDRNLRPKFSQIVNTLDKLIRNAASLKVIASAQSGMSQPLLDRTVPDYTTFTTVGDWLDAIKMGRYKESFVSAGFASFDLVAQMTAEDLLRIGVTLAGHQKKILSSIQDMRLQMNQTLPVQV
From the text: as §1

DYRK1A = DYRK1A (Homo sapiens, UniProt Q13627); assay: Determination of IC50 values against DYRK1a; settings: average of duplicate; 10 concentrations 100 μM to 0.003 μM; read-out: IC 50 against DYRK1a
Description: The kinase assay was carried out using Multidrop 384's at room temperature in a total assay volume of 25.5 μl. To plates containing 0.5 μl of compounds, DMSO controls or acid blanks, 15 μl of an enzyme mix containing the DYRK1a enzyme and peptide/protein substrate in buffer was added. Compounds were pre-incubated in the presence of the enzyme and peptide/protein substrate for 5 minutes before initiation of the reaction by addition of 10 μl of ATP (final concentration selected for each kinase at 5, 20 or 50 μM). Assays were carried out for 30 minutes at room temperature before termination by the addition of 5 μl orthophosphoric acid. The assay plates were then harvested onto P81 Unifilter Plates by a Packard Harvester (wash buffer is 50 mM orthophosphoric acid) and dried in air. The dry Unifilter plates were then sealed by the addition of MicroScint O and counted in Packard Topcount NXT scintillation counters.

[1] = 100 micromolar inhibitor concentration, 100 is no change
[2] = 100 micromolar inhibitor, 100 = no change

MAPKAP-K2, sequence (P49137 whole entry, species assumed): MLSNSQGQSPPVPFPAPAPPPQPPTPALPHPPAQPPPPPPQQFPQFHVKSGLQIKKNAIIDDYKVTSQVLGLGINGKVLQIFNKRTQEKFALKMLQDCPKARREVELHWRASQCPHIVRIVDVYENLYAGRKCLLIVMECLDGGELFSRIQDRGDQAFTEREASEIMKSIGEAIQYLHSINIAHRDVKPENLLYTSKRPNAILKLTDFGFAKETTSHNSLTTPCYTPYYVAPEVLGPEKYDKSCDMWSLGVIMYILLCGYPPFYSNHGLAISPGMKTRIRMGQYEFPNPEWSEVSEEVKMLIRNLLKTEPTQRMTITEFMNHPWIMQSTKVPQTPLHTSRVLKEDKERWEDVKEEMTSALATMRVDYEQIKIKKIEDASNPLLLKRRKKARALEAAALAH

Structure (SMILES)	IC50 (DYRK1A) [nM]	remaining activity at 100 µM (MAPKAP-K2; [1]) [%]	remaining activity at 100 µM (EIF2AK3; [1]) [%]	remaining activity at 100 µM (EPH-B3; [1]) [%]	residual kinase activity, MAPKAP-K2 (MAPKAP-K2; [1])	residual kinase activity, EIF2AK3 (EIF2AK3; [1])	residual kinase activity, EPH-B3 (EPH-B3; [1])	also measured
CC(=O)Nc1nc2cc(O)ccc2s1 [Compound 01-66, N-(5-hydroxybenzo[d]thiazol-2-yl)acetamide]	800	–	–	–	–	–	–	remaining activity at 100 µM (MAPKAP-K2): 77%; remaining activity at 100 µM (EIF2AK3): 59%; remaining activity at 100 µM (EPH-B3): 83%
CC(=O)Nc1nc2cc(F)ccc2s1 [Compound 03-77]	3900	106	99	113	–	–	–	–
CC(=O)Nc1nc2cc(C)ccc2s1 [Compound 03-76]	–	–	–	–	105	97	107	–
CC(=O)Nc1nc2ccc(F)cc2s1 [Compound 03-94]	23600	–	–	–	–	–	–	–
O=C(Nc1nc2ccc(O)cc2s1)c1cccnc1 [Compound 08-44]	–	–	–	–	56	51	65	–
O=C(Nc1nc2ccc(O)cc2s1)c1ccccn1 [Compound 03-12]	–	–	–	–	43	73	63	–
CC(=O)Nc1nc2ccccc2s1 [Compound 03-32]	–	–	–	–	102	104	71	–
CC(=O)Nc1nc2cc(C(F)(F)F)ccc2s1 [Compound 03-73]	26500	114	100	114	–	–	–	–
CC(=O)Nc1cccc(NC(=O)c2nc3ccc(O)cc3s2)c1 [Compound 03-07, N-(3-acetamidophenyl)-6-hydroxybenzo[d]thiazole-2-carboxamide]	–	–	–	–	–	–	–	remaining activity at 100 µM (MAPKAP-K2; [2]): 51%; remaining activity at 100 µM (EIF2AK3; [2]): 69%; remaining activity at 100 µM (EPH-B3; [2]): 64%
O=C(Nc1nc2cc(O)ccc2s1)c1cccnc1 [Compound 03-33]	–	–	–	–	109	87	108	–
O=C(Nc1nc2ccc(O)cc2s1)c1ccccc1 [Compound 03-60]	–	–	–	–	59	45	93	–
CC(=O)Nc1nc2ccc(C(F)(F)F)cc2s1 [Compound 01-90]	1100	90	105	89	–	–	–	–
CC(=O)Nc1nc2ccc([N+](=O)[O-])cc2s1 [Compound 13-10]	700	–	–	–	–	–	–	–
O=C(Nc1nc2ccc(O)cc2s1)c1ccncc1 [Compound 08-42]	–	–	–	–	72	59	88	–
O=C(Nc1nc2cc(O)ccc2s1)c1ccccn1 [Compound 03-13]	–	–	–	–	98	89	44	–
COc1ccc2sc(NC(C)=O)nc2c1 [Compound 03-21]	400	108	82	106	–	–	–	–
CC(=O)Nc1nc2ccc(C#N)cc2s1 [Compound 01-94]	1300	65	78	72	–	–	–	–
CC(=O)Nc1nc2ccc(O)cc2s1 [Compound 01-71]	28100	46	77	66	–	–	–	–
O=C(Nc1nc2cc(O)ccc2s1)c1ccncc1 [Compound 03-11]	–	–	–	–	82	65	76	–
